One assay has as its system response regulator HssR. The assay can be described thus: HssR dependence of XylE inducing activity, Newman. Format: cell-based, Staphylococcus aureus. The settings on record: whether XylE inducing activity requires HssR. The protocol:
With reference to Table 1, “Luminescence” refers to the raw luminescence value obtained in a luminomter. “Control (82.5 nm)” refers to the luminescence value obtained from heme at 82.5 nM as a positive control in the same plate as the experimental. “% lum” is the percentage of luminescence induced by the compound as compared to the heme control in the same plate. […] All of these assays are described in the application. […] “N/T” indicates the test was not performed. […]
S. aureus strains harboring the appropriate reporter construct were inoculated into 500 μl of TSB containing 10 μg/ml chloramphenicol in 1.5 ml tubes. Cultures were grown O/N at 37° C. with shaking. Bacteria were pelleted by centrifugation and spent medium was aspirated. The pellet was washed once with 500 μl of 20 mM potassium phosphate, pH 7.6, and resuspended in 150 μl of 100 mM potassium phosphate buffer, pH 8.0, 10% (v/v) acetone, 25 μg/ml lysostaphin. After 20 minute incubation at 37° C. and 5 minute incubation on ice, samples were centrifuged at 20,000 g for 30 minutes at 4° C. 1-10 μl of supernatant was added to a 96-well plate and 200 μl of 100 mM potassium phosphate, pH 8.0, 0.2 mM pyrocatechol was added to each well. Formation of 2-hydroxymuconic semialdehyde was tracked by measuring the absorbance at 375 nm every minute for 30 minutes on a Varian MP 50 microplate reader. Protein concentration in samples was determined by BCA (Pierce). One unit of specific activity of XylE in a sample is defined as the formation of 1 nmol of 2-hydroxymuconic semialdehyde per minute per milligram of cellular protein at 30° C. (Chien, Y., Manna, A. C., Projan, S. J., and Cheung, A. L. 1999, “SarA, a global regulator of virulence determinants in Staphylococcus aureus, binds to a conserved motif essential for sar-dependent gene regulation. J. Biol. Chem. 274, 37169-37176).

Assay [1] concerns S. aureus heme toxicity adaptation. Nature of the assay: Heme adaptation (resistance to heme-mediated toxicity), Newman. Format: cell-based, Staphylococcus aureus. The note with it: whether compound induces heme adaptation. The protocol:
With reference to Table 1, “Luminescence” refers to the raw luminescence value obtained in a luminomter. “Control (82.5 nm)” refers to the luminescence value obtained from heme at 82.5 nM as a positive control in the same plate as the experimental. “% lum” is the percentage of luminescence induced by the compound as compared to the heme control in the same plate. […] All of these assays are described in the application. […] “N/T” indicates the test was not performed.
This secondary counter screen can involve testing the compounds of interest for their ability to increase the resistance of wildtype S. aureus to heme-mediated toxicity. Upon sensing heme, HssRS increases the expression of hrtAB, in turn increasing the resistance of S. aureus to heme mediated toxicity. By extension, additional molecules recognized by HssRS leading to hrtAB activation can result in a similar increase in resistance to heme mediated toxicity. For this assay, bacteria can be grown for 15 hours in the presence of compounds of interest (using concentrations determined in the XylE assay), followed by subculture into TSB containing 10 μM heme. Compounds that increase the resistance of S. aureus to heme-mediated toxicity can be selected for further studies. S. aureus strains unable to adapt to heme mediated toxicity (ΔhssR) can be included as a negative control. As a positive control, wildtype S. aureus can be exposed to subinhibitory concentrations of heme prior to subculture. The inclusion of this secondary counterscreen can, in some aspects, rule out compounds that non-specifically increase the expression of the XylE and Lux-based reporter genes.
S. aureus cultures were grown overnight (O/N ˜15 hrs) at 37° C. with shaking at 180 RPM in tryptic soy broth (TSB). Cultures were diluted 1:75 and inoculated into roundbottom 96-well plates in a final volume of 150 μl. Cultures were grown at 37° C. with aeration and bacterial growth was monitored by the increase in absorbance (O.D.600) over time. For the hemin adaptation assays, the medium was supplemented with different hemin concentrations prior to bacterial inoculation. The results represent the mean±S.D. from triplicate determinations and the asterisks denote statistically significant differences as determined by Student's t test (p<0.05).

`CC(NC(=O)C1(c2ccccc2)CCCC1)C1COc2ccccc2O1` (stereo not shown) [drawing 26]: the “HssR Dep” value in the assay on response regulator HssR is recorded as “+”. In assay [1], the “Heme Adapt” value is “+”.

As for `CC(C)(C)c1ccc(O)c(NC(=S)NC(=O)c2cc3ccccc3o2)c1`, the “HssR Dep” value with response regulator HssR is recorded as “+”. Further, in assay [1], the “Heme Adapt” value is given as “+”.

As to `O=C(N/N=C/c1ccc(-c2cccc(C(F)(F)F)c2)o1)C1COc2ccccc2O1` (stereo not shown) [drawing 49], the “HssR Dep” value in the assay on response regulator HssR is reported as “+”. For the same molecule, the “Heme Adapt” value in assay [1] is recorded as “+”.

Take `COc1ccc(C(=O)Nc2sc(-c3ccccc3)cc2C(N)=O)cc1`: the “HssR Dep” value in the assay on response regulator HssR is listed as “+”. Moreover, the “Heme Adapt” value in assay [1] was “+”.

For the molecule `CC(NC(=O)C1(c2ccccc2)CCCC1)C1COc2ccccc2O1` (stereo not shown) [drawing 45], the “HssR Dep” value with response regulator HssR is “+”. For the same molecule, the “Heme Adapt” value in assay [1] is given as “+”.

As to `CCCN1C(=O)/C(=C2/C(=O)N(CC(=O)Nc3ccc(Cl)cc3)c3ccccc32)SC1=S` [drawing 67], the “HssR Dep” value in the assay with response regulator HssR is “+”. Further, the “Heme Adapt” value in assay [1] is listed as “+”.

`Cc1ccc(O)c(NC(=O)c2nn3c(c2Br)NC(c2ccco2)CC3C(F)(F)F)c1` (stereo not shown) [drawing 29]: the “HssR Dep” value in the assay on response regulator HssR is on record as “+”. For the same molecule, the “Heme Adapt” value in assay [1] is “+”.

As to `COc1ccc(Br)cc1C(=O)NC(=S)Nc1cc(C)c(C)cc1O` [drawing 63], the “HssR Dep” value in the assay on response regulator HssR is reported as “+”. In addition, the “Heme Adapt” value in assay [1] is reported as “+”.

As for `COc1ccc(-c2cc(-c3ccc(OC)cc3O)n[nH]2)cc1`, the “HssR Dep” value in the assay on response regulator HssR is “+”. For the same molecule, the “Heme Adapt” value in assay [1] is recorded as “+”.

As for `Cc1cccc(C(=O)Nc2ccc(-c3nc4ccccc4o3)cc2)c1` [drawing 43], the “HssR Dep” value in the assay on response regulator HssR is “+”. Besides, the “Heme Adapt” value in assay [1] was “+”.

For `Cc1ccc(NS(=O)(=O)c2ccc3c(c2)Cc2cc(S(=O)(=O)Nc4ccc(C)cc4)ccc2-3)cc1` [drawing 74], the “HssR Dep” value in the assay on response regulator HssR is on record as “+”. Besides, the “Heme Adapt” value in assay [1] is listed as “+”.

In the case of `COc1ccc(-c2cc(-c3ccc(C)cc3)[nH]n2)c(O)c1`, the “HssR Dep” value in the assay with response regulator HssR is “+”. Besides, in assay [1], the “Heme Adapt” value is “+”.

With `Fc1ccc(CNC(=S)Nc2ccc(Oc3ccccc3)cc2)cc1`, the “HssR Dep” value with response regulator HssR is “+”. For the same molecule, the “Heme Adapt” value in assay [1] is “+”.

For the molecule `Oc1c(-c2cc(-c3ccco3)[nH]n2)ccc2ccccc12` [drawing 65], in the assay on response regulator HssR, the “HssR Dep” value is “+”. The “Heme Adapt” value in assay [1] was “+”.

Take `Oc1c(-c2cc(-c3ccco3)[nH]n2)ccc2ccccc12` [drawing 25]: in the assay with response regulator HssR, the “HssR Dep” value is given as “+”. For the same molecule, in assay [1], the “Heme Adapt” value was “+”.

Take `O=C(N/N=C/c1ccc(-c2ccc(Br)cc2)o1)C1COc2ccccc2O1` (stereo not shown) [drawing 48]: the “HssR Dep” value in the assay with response regulator HssR was “+”. Besides, in assay [1], the “Heme Adapt” value is reported as “+”.

As to `COc1ccccc1NC1=C/C(=N\S(=O)(=O)c2ccc(Br)cc2)c2ccccc2C1=O` [drawing 81], in the assay on response regulator HssR, the “HssR Dep” value is on record as “+”. In addition, the “Heme Adapt” value in assay [1] is “+”.

(Values after patent US8263642B2, “Antimicrobial compounds and methods of use thereof” (Vanderbilt University, priority 2008, dated 2012).)
